Experimental data taken from US9249106B2, “Substituted hydrazide compounds and use thereof” (Shenyang J & Health Pharmaceutical Co., Ltd., priority 2009, dated 2016).
Values after ≈ are worked out from the molar mass of the structure shown. Where a name gives a salt, the structure may show the parent alone.

Legend:
[1] = system: A549 (human non-small cell lung cancer); assay: Antitumor activity assay in vitro (MTT); format: cell-based; conditions: A549 cells, 72 hours, Bliss method; for IC50: Homo sapiens
Protocol: (§1) (1) Five cell strains, SK-N-SH (human neuroblastoma cell), NCI-H226 (human lung cancer cell), Bel7402 (human liver cancer cell), A549 (human non-small cell lung cancer), and MCF7 (human breast cancer cell), were thawed and stably passaged for two or three times, respectively, and then digested with trypsin solution (0.25%) so as to be removed from the bottom of culture flasks. The digested cell solution was poured into a centrifuge tube, to which culture media was added to stop the digestion. The centrifuge tube was centrifuged at 1300 r/min for 3 min, the supernatant was removed gently and then 5 mL culture media was added. The cells were pipetted and mixed homogeneously. 10 μL cell suspension was taken into a cell counting plate for counting, wherein the cell concentration was adjusted to 10^4 cells/well. Each well of the 96-well plates, except for A1 well as blank control, contained 100 μL cell suspension. The 96-well plates were placed in an incubator and cultivated for 24 hours.
(§2) (2) 50 μL dimethyl sulfoxide was used to dissolve the test samples, and then a suitable amount of culture media was added so as to reach a final concentration of 2 mg/mL. Then the samples were diluted to 100, 20, 4, 0.8, 0.16 μg/mL in a 24-well plate, respectively. […] The 96-well plates were placed in an incubator and cultivated for 72 hours.
(§3) (3) The culture media containing the compounds in the 96-well plates was discarded, and the cells were washed with phosphate buffered solution (PBS) twice. Each well was added with 100 μL MTT (tetrazole) (0.5 mg/mL), and then placed in an incubator to incubate for 4 hours, after which MTT solution was discarded and 100 μL dimethyl sulfoxide was added thereto. The reaction product of survival cells with MTT, i.e. formazan, was dissolved completely by oscillation on a magnetic oscillator, then placed into a microplate reader to measure the results, and the IC50 values of compounds could be deduced by Bliss method. The control, N′-[(2-hydroxy-3-allyl)phenylmethylene]-2-(4-benzylpiperazin-1-yl)acethydrazide(PAC-1), was produced according to the method of patent WO2008/134474 A2.

[2] = system: Bel7402 (human liver cancer cell); assay: Antitumor activity assay in vitro (MTT); format: cell-based; conditions: 72 hours, Bliss method; for IC50 Bel7402: Bel7402 cells; for IC50: Homo sapiens, Bel-7402, Bel7402 cells
Protocol: as §1, §2, §3

[3] = system: MCF7 (human breast cancer cell); assay: Antitumor activity assay in vitro (MTT); format: cell-based; conditions: MCF7 cells, 72 hours, Bliss method; for IC50: Homo sapiens
Protocol: as §1, §2, §3

[4] = system: NCI-H226 (human lung cancer cell); assay: Antitumor activity assay in vitro (MTT); format: cell-based; conditions: NCI-H226 cells, 72 hours, Bliss method; for IC50: Homo sapiens, read-out: IC50 NCI-226
Protocol: as §1, §2, §3

[5] = system: SK-N-SH (human neuroblastoma cell); assay: Antitumor activity assay in vitro (MTT); format: cell-based; conditions: SK-N-SH cells, 72 hours, Bliss method; for IC50: Homo sapiens
Protocol: as §1, §2, §3

Procaspase-3 = molecular target: T1, Procaspase-3 (Homo sapiens, UniProt P42574); conditions: both in vitro and in vivo; cited from earlier work
T1 sequence (P42574 1-277): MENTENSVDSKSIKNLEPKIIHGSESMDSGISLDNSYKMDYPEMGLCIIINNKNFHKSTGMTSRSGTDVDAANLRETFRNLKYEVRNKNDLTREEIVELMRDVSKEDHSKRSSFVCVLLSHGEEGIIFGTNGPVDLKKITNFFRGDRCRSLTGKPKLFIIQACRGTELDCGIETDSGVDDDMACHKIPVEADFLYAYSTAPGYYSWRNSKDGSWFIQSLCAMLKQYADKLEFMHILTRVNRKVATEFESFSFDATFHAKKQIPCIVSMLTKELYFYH

cancer cells = conditions: after treatment with PAC-1; cited from earlier work

Compound | IC50 A549 [1] | IC50 Bel7402 [2] | IC50 MCF7 [3] | IC50 NCI-226 [4] | IC50 SK [5] | IC50 [1] | IC50 [2] | IC50 [3] | IC50 [4] | IC50 [5] | activation of Procaspase-3 (Procaspase-3) | time to induction of apoptosis of cancer cells after treatment (cancer cells)
CC(C)(C)c1cc(C=NNC(=O)c2ccc3nc[nH]c3c2)c(O)c(C(C)(C)C)c1.Cl [Example 1, N′-[(2-hydroxy-3,5-di-tert-butyl)phenylmethylene]-1H-benzo[d]imidazole-6-formhydrazide hydrochloride] | 0.4 µg/mL | 0.56 µg/mL | 0.8 µg/mL | 0.07 µg/mL | 0.08 µg/mL |  |  |  |  |  |  | 
Cc1ccc(C=NNC(=O)c2ccc3nc[nH]c3c2)c(O)c1.Cl [Example 2, N′-[(2-hydroxy-4-methyl)phenylmethylene]-1H-benzo[d]imidazole-6-formhydrazide hydrochloride] | 1.9 µg/mL | 2.4 µg/mL | 1.8 µg/mL | 1.0 µg/mL | 2.1 µg/mL |  |  |  |  |  |  | 
O=C(NN=Cc1c(O)ccc2ccccc12)c1ccc2nc[nH]c2c1 [Example 3, N′-[(2-hydroxy-1-naphthyl)methylene]-1H-benzo[d]imidazole-6-formhydrazide hydrochloride] |  |  |  |  |  | 0.7 µg/mL | 2.5 µg/mL | 1.2 µg/mL | 1.1 µg/mL | 3 µg/mL |  | 
C=CCc1cccc(C=NNC(=O)c2ccc3nc[nH]c3c2)c1O.Cl [Example 4, N′-[(2-hydroxy-3-allyl)phenylmethylene]-1H-benzo[d]imidazole-6-formhydrazide hydrochloride] | 2 µg/mL | 1.3 µg/mL | 3.3 µg/mL | 0.2 µg/mL | 1.3 µg/mL |  |  |  |  |  |  | 
Cc1cc(C)c(C=NNC(=O)c2ccc3nc[nH]c3c2)c(O)c1C.Cl [Example 6, N′-[(2-hydroxy-3,4,6-trimethyl)phenylmethylene]-1H-benzo[d]imidazole-6-formhydrazide hydrochloride] | 3.1 µg/mL | 2.6 µg/mL | 3.2 µg/mL | 1.7 µg/mL | 1.8 µg/mL |  |  |  |  |  |  | 
Cc1ccc(O)c(C=NNC(=O)c2ccc3nc[nH]c3c2)c1.Cl [Example 7, N′-[(2-hydroxy-5-methyl)phenylmethylene]-1H-benzo[d]imidazole-6-formhydrazide hydrochloride] | 12 µg/mL | 5.4 µg/mL | 1.9 µg/mL | 2.7 µg/mL | 3.2 µg/mL |  |  |  |  |  |  | 
Cc1ccc(C(C)C)c(C=NNC(=O)c2ccc3nc[nH]c3c2)c1O.Cl [Example 8, N′-[(2-hydroxy-3-methyl-6-isopropyl)phenylmethylene]-1H-benzo[d]imidazole-6-formhydrazide hydrochloride] | 1.5 µg/mL | 2.4 µg/mL | 1.7 µg/mL | 1.0 µg/mL | 3.0 µg/mL |  |  |  |  |  |  | 
Cl.O=C(NN=Cc1ccc(OCc2ccc(Cl)cc2)cc1O)c1ccc2nc[nH]c2c1 [Example 9, N′-{[2-hydroxy-4-(4-chlorobenzyloxy)]phenylmethylene}-1H-benzo[d]imidazole-6-formhydrazide hydrochloride] | 0.9 µg/mL | 1.5 µg/mL | 0.6 µg/mL | 0.5 µg/mL | 0.2 µg/mL |  |  |  |  |  |  | 
O=C(NN=Cc1ccccc1O)c1ccc2nc[nH]c2c1 [Example 11, N′-[(2-hydroxy)phenylmethylene]-1H-benzo[d]imidazole-6-formhydrazide hydrochloride] |  |  |  |  |  | 10 µg/mL | 3.2 µg/mL | 2.3 µg/mL | 2.3 µg/mL | 2.7 µg/mL |  | 
Cl.O=C(NN=Cc1cc(OCc2ccc(Cl)cc2)ccc1O)c1ccc2nc[nH]c2c1 [Example 12, N′-{[2-hydroxy-5-(4-chlorobenzyloxy)]phenylmethylene}-1H-benzo[d]imidazole-6-formhydrazide hydrochloride] | 5.8 µg/mL | 3.3 µg/mL | 2.1 µg/mL | 1.7 µg/mL | 3.0 µg/mL |  |  |  |  |  |  | 
Cl.O=C(NN=Cc1ccc(OCc2ccccc2)cc1O)c1ccc2nc[nH]c2c1 [Example 13, N′-[(2-hydroxy-4-benzyloxy)phenylmethylene]-1H-benzo[d]imidazole-6-formhydrazide hydrochloride] | 2.6 µg/mL | 3.7 µg/mL | 1.8 µg/mL | 2.4 µg/mL | 1.1 µg/mL |  |  |  |  |  |  | 
C=CCN1C(=O)NC(=O)C(C=NNC(=O)c2ccc3nc[nH]c3c2)C1=O (centres unmarked) [Example 14, N′-[(1-allyl-2,4,6-pyrimidinetrione-5-yl)methylene]-1H-benzo[d]imidazole-6-formhydrazide] |  |  |  |  |  | 10 µg/mL (≈ 28.2 µM) | 2.2 µg/mL (≈ 6.21 µM) | 1.7 µg/mL (≈ 4.8 µM) | 2.5 µg/mL (≈ 7.06 µM) | 0.9 µg/mL (≈ 2.54 µM) |  | 
Cl.O=C(NN=Cc1cc(OCc2cccc(Cl)c2)ccc1O)c1ccc2nc[nH]c2c1 [Example 18, N′-{[2-hydroxy-5-(3-chlorobenzyloxy)]phenylmethylene}-1H-benzo[d]imidazole-6-formhydrazide hydrochloride] | 1.5 µg/mL | 3.1 µg/mL | 2.7 µg/mL | 2.3 µg/mL | 1.7 µg/mL |  |  |  |  |  |  | 
Cl.O=C(Cc1nc2ccccc2[nH]1)NN=Cc1cc(C(=O)CCl)ccc1O [Example 22, N′-[(2-hydroxy-5-chloroacetyl)phenylmethylene]-1H-benzo[d]imidazole-2-acethydrazide hydrochloride] | 1.7 µg/mL | 0.5 µg/mL | 3.4 µg/mL | 0.8 µg/mL | 1.0 µg/mL |  |  |  |  |  |  | 
Cc1cc(C)c(C=NNC(=O)Cc2nc3ccccc3[nH]2)c(O)c1C.Cl [Example 23, N′-[(2-hydroxy-3,4,6-trimethyl)phenylmethylene]-1H-benzo[d]imidazole-2-acethydrazide hydrochloride] | 2.4 µg/mL | 3.1 µg/mL | 2.6 µg/mL | 0.3 µg/mL | 0.3 µg/mL |  |  |  |  |  |  | 
Cl.O=C(Cc1nc2ccccc2[nH]1)NN=Cc1cc(OCc2ccccc2)ccc1O [Example 25, N′-[(2-hydroxy-5-benzyloxy)phenylmethylene]-1H-benzo[d]imidazole-2-acethydrazide hydrochloride] | 4.1 µg/mL | 3.7 µg/mL | 1.0 µg/mL | 1.6 µg/mL | 0.4 µg/mL |  |  |  |  |  |  | 
C=CCc1cccc(/C=N/NC(=O)CN2CCN(Cc3ccccc3)CC2)c1O [PAC-1, N′-[(2-hydroxy-3-allyl)phenylmethylene]-2-(4-benzylpiperazin-1-yl)acethydrazide, reference compound] |  |  |  |  |  | 1.9 µg/mL (≈ 4.84 µM) | 3.8 µg/mL (≈ 9.68 µM) | 2.6 µg/mL (≈ 6.62 µM) | 1.7 µg/mL (≈ 4.33 µM) | 4.3 µg/mL (≈ 11 µM) | activate Procaspase-3 significantly | ≤ 23 h
N′-{[2-hydroxy-3-(1-methyl-2-allyl)]phenylmethylene}-1H-benzo[d]imidazole-6-formhydrazide hydrochloride [Example 10] | 1.2 µg/mL | 3.3 µg/mL | 3.8 µg/mL | 1.0 µg/mL | 1.1 µg/mL |  |  |  |  |  |  | 
